Consider six molecules from ChEMBL document CHEMBL1129976, “New benzocycloalkylpiperazines, potent and selective 5-HT1A receptor ligands” (J Med Chem, 1997).

A value given as a limit tells only on which side of the number the result lay.

D(2) dopamine receptor, sequence (P20288 whole entry): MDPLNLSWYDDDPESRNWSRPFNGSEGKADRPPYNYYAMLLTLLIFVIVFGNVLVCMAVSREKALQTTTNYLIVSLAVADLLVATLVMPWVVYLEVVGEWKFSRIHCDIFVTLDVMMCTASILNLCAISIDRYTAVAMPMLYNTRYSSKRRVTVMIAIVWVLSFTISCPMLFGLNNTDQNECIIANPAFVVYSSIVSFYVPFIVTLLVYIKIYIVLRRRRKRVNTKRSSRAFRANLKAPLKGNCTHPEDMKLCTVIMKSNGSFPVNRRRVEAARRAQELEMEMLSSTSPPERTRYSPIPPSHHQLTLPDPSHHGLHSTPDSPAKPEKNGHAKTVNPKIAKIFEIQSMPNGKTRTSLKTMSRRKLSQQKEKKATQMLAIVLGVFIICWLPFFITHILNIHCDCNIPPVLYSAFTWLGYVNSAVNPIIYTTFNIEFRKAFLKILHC
Sigma non-opioid intracellular receptor 1 (Rattus norvegicus, UniProt Q9R0C9), sequence (Q9R0C9 whole entry): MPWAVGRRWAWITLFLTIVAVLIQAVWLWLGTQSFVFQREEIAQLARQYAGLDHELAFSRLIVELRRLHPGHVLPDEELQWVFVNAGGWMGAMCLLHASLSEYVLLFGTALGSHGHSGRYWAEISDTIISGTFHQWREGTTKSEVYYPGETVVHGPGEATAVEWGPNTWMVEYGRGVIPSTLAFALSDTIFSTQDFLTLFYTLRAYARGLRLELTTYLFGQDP
D(1A) dopamine receptor (Mus musculus, UniProt Q61616), sequence (Q61616 whole entry): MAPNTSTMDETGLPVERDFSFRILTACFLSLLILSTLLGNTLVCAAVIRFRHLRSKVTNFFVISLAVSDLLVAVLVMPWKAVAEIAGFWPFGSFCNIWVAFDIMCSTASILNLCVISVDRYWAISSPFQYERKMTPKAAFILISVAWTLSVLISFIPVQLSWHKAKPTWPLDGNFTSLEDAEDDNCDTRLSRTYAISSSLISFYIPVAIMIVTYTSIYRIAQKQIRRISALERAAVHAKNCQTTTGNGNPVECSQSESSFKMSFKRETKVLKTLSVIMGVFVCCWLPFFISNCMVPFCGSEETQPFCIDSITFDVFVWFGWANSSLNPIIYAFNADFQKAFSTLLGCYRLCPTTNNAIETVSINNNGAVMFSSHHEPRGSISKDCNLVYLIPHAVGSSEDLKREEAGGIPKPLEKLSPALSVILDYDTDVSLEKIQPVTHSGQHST
5-hydroxytryptamine receptor 1D, sequence (P79400 whole entry): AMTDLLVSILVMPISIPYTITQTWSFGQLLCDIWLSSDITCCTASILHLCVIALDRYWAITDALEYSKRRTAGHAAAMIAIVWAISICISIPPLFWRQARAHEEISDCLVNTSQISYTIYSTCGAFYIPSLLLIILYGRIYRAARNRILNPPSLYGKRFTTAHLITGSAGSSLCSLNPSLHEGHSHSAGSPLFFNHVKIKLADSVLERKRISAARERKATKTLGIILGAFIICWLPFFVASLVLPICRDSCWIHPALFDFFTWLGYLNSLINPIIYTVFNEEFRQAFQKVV
Sigma non-opioid intracellular receptor 1 (Homo sapiens, UniProt Q99720), sequence (Q99720 whole entry): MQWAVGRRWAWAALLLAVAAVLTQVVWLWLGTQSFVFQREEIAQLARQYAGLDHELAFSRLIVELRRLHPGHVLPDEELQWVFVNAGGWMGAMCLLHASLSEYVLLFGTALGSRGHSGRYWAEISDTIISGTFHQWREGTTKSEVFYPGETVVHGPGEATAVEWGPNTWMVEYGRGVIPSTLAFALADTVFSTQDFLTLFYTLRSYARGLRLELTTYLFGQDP

The first experiment deals with T1, 5-hydroxytryptamine receptor 1A (Rattus norvegicus) (UniProt P19327).
T1 sequence (whole entry): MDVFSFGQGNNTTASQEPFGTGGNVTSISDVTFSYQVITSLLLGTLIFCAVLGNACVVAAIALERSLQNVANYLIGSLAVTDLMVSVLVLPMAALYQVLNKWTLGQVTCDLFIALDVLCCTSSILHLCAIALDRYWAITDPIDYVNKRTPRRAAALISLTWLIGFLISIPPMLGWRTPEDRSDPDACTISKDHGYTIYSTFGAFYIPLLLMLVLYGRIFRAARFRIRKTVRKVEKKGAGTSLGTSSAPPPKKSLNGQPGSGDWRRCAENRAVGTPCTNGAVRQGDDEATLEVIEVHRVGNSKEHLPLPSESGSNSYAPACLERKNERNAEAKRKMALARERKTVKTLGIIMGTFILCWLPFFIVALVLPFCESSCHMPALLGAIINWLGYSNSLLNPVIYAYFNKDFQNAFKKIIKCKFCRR
Description: Inhibition of [3H]8-OH-DPAT binding to 5-hydroxytryptamine 1A receptor in rat hippocampal membranes at 10e-7 M. The format is cell membranes. The settings on record: Hippocampus, Membrane.
Consider `Cc1ccc(C(=O)NCCN2CCN(C3CCCCc4ccccc43)CC2)cc1` (configuration not stated), for which the inhibition was 0%.

In another experiment the target is 5-hydroxytryptamine receptor 2A (Bos taurus, UniProt Q75Z89). Description: Binding affinity against 5-hydroxytryptamine 2 receptor.
5-hydroxytryptamine receptor 2A, sequence (Q75Z89 whole entry): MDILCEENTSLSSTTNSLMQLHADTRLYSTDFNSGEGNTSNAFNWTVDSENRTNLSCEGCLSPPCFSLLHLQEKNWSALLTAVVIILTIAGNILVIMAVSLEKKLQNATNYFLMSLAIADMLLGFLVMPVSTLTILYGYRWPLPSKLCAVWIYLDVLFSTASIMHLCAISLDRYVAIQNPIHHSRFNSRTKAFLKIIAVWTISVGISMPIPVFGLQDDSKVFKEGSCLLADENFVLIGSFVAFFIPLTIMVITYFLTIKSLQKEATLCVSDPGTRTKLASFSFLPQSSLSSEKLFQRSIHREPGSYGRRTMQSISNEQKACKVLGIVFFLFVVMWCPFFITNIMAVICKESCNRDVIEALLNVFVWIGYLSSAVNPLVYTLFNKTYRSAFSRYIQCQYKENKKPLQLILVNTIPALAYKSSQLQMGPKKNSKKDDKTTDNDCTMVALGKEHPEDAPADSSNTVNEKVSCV
Conditions: not given
As for `CCCN(CCC)C1CCc2cccc(O)c2C1` (configuration not stated) [8-OH-DPAT], the Ki is greater than 1000 nM.

Molecule `O=C1CC2(CCCC2)CC(=O)N1CCCCN1CCN(c2ncccn2)CC1` [BUSPIRONE] showed a Ki of 178 nM.

The next experiment concerns the target Sigma non-opioid intracellular receptor 1 (Homo sapiens, UniProt Q99720). Description: Binding affinity against sigma receptor.
Conditions: not given
Regarding `CCCN(CCC)C1CCc2cccc(O)c2C1` (configuration not stated) [8-OH-DPAT], the Ki is greater than 2430 nM.

A further experiment has as its target D(2) dopamine receptor (Bos taurus, UniProt P20288). Description: Inhibition of [3H]raclopride binding to Dopamine receptor D2 of bovine striatum. It is filed as tissue-based.
Conditions: not given
For the molecule `O=C(NCCN1CCN(C2CCCc3ccccc32)CC1)c1ccc(Cl)cc1` (stereo in doubt; 34), the affinity corresponds to a Ki of 120 nM.

With `O=C(NCCN1CCN(C2CCCc3ccccc32)CC1)c1ccccc1` (stereo in doubt; 32), the Ki is 110 nM.

In turn, `CCCN(CCC)C1CCc2cccc(O)c2C1` (configuration not stated) [8-OH-DPAT] returned a Ki of 2380 nM.

Take `O=C(NCCN1CCN(C2CCCc3ccccc32)CC1)c1ccc(Cl)cc1` (stereo in doubt; (-)-34): the Ki is 480 nM.

The molecule `O=C1CC2(CCCC2)CC(=O)N1CCCCN1CCN(c2ncccn2)CC1` [BUSPIRONE] yielded a Ki of 44 nM.

Another experiment has as its target Sigma non-opioid intracellular receptor 1 (Rattus norvegicus, UniProt Q9R0C9). Briefly: Inhibition of [3H]DTG binding to sigma receptor in rat hippocampus. The format is tissue-based.
Conditions: not given
On to `O=C(NCCN1CCN(C2CCCc3ccccc32)CC1)c1ccccc1` (stereo in doubt; 32), for which the affinity, expressed as Ki, was 90 nM.

Molecule `CCCN(CCC)C1CCc2cccc(O)c2C1` (configuration not stated) [8-OH-DPAT] had a Ki of 5240 nM.

With `O=C(NCCN1CCN(C2CCCc3ccccc32)CC1)c1ccc(Cl)cc1` (stereo in doubt; (-)-34), the affinity, expressed as Ki, was 1250 nM.

In another experiment the target is T2, 5-hydroxytryptamine receptor 1A (Rattus norvegicus, UniProt P19327).
T2 sequence (P19327 whole entry): T1 sequence (whole entry)
Briefly: Displacement of [3H]8-OH-DPAT from 5-hydroxytryptamine 1A receptor of rat hippocampal membranes. The format is cell membranes, Membrane.
Conditions: not given
Background: Displacement assays read how much labelled ligand stays bound in the presence of the test substance.
In the case of `O=C(NCCN1CCN(C2CCCc3ccccc32)CC1)c1ccc(Cl)cc1` (stereo in doubt; 34), the Ki is 10 nM.

With `O=C(NCCN1CCN(C2CCCc3ccccc32)CC1)c1ccccc1` (stereo in doubt; 32), the Ki came out at 1.1 nM.

In turn, `O=C(NCCN1CCN(C2CCCc3ccccc32)CC1)c1ccc(Cl)cc1` (stereo in doubt; (-)-34) displayed a Ki of 4 nM.

The species entered for another experiment is Bos taurus. Briefly: Inhibition of [3H]ketanserin binding to 5-hydroxytryptamine 2 receptor of bovine frontal cortex at 10e-7 M. It is filed as tissue-based.
Conditions: not given
Take `Cc1ccc(C(=O)NCCN2CCN(C3CCCCc4ccccc43)CC2)cc1` (configuration not stated): the inhibition is 14%.

Molecular target in another experiment: not listed separately
Briefly: Displacement of [3H]-prazosin from Alpha-1 adrenergic receptor of bovine frontal cortex. It is filed as tissue-based, Bos taurus.
Conditions: not given
Molecule `O=C(NCCN1CCN(C2CCCc3ccccc32)CC1)c1ccc(Cl)cc1` (stereo in doubt; 34) showed a Ki of 410 nM.

In the case of `O=C(NCCN1CCN(C2CCCc3ccccc32)CC1)c1ccccc1` (stereo in doubt; 32), the Ki was found to be 150 nM.

Molecule `CCCN(CCC)C1CCc2cccc(O)c2C1` (configuration not stated) [8-OH-DPAT] returned a Ki of 9460 nM.

On to `O=C(NCCN1CCN(C2CCCc3ccccc32)CC1)c1ccc(Cl)cc1` (stereo in doubt; (-)-34), for which the inhibition constant (Ki) came to 450 nM.

Molecule `O=C1CC2(CCCC2)CC(=O)N1CCCCN1CCN(c2ncccn2)CC1` [BUSPIRONE] showed a Ki of 1320 nM.

The target of the next experiment is D(1A) dopamine receptor (Bos taurus, UniProt Q95136). Briefly: Inhibition of [3H]SCH-23390 binding to Dopamine receptor D1 of bovine striatum. It is filed as tissue-based.
D(1A) dopamine receptor (Bos taurus, UniProt Q95136), sequence (Q95136 whole entry): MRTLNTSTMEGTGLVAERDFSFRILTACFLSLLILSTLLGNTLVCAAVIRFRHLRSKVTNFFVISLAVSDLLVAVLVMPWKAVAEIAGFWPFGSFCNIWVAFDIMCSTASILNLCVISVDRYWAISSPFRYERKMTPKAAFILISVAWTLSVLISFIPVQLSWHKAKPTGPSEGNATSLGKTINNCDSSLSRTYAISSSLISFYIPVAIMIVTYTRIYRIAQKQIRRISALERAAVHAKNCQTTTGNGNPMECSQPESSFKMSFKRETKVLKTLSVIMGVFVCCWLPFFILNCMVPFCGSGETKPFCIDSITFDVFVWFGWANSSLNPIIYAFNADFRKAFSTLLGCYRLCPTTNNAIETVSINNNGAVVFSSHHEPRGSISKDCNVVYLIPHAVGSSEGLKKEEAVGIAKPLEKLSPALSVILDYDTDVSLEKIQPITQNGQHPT
Conditions: not given
Take `O=C(NCCN1CCN(C2CCCc3ccccc32)CC1)c1ccccc1` (stereo in doubt; 32): the Ki was 21900 nM.

Consider `CCCN(CCC)C1CCc2cccc(O)c2C1` (configuration not stated) [8-OH-DPAT], for which the affinity, expressed as Ki, was 87300 nM.

On to `O=C(NCCN1CCN(C2CCCc3ccccc32)CC1)c1ccc(Cl)cc1` (stereo in doubt; (-)-34), for which the affinity, expressed as Ki, was 27000 nM.

On to `O=C1CC2(CCCC2)CC(=O)N1CCCCN1CCN(c2ncccn2)CC1` [BUSPIRONE], for which affinity was put at a Ki of 6100 nM.

A further experiment addresses 5-hydroxytryptamine receptor 1D (Sus scrofa, UniProt P79400). Briefly: Binding affinity against 5-hydroxytryptamine 1D receptor using [3H]5-HT in pig striatum + frontalCortex. It is filed as tissue-based.
Conditions: not given
As for `O=C(NCCN1CCN(C2CCCc3ccccc32)CC1)c1ccccc1` (stereo in doubt; 32), the Ki is 6920 nM.

Molecular target in a further experiment: not listed separately
Description: Inhibition of [3H]ketanserin binding to 5-hydroxytryptamine 2 receptor of bovine frontal cortex. It is filed as tissue-based, Bos taurus.
Conditions: not given
In the case of `O=C(NCCN1CCN(C2CCCc3ccccc32)CC1)c1ccc(Cl)cc1` (stereo in doubt; 34), the Ki amounted to 1000 nM.

`O=C(NCCN1CCN(C2CCCc3ccccc32)CC1)c1ccc(Cl)cc1` (stereo in doubt; (-)-34) had a Ki of 2700 nM.

The same experiment, now with this note: read-out: Ki.
As for `O=C(NCCN1CCN(C2CCCc3ccccc32)CC1)c1ccccc1` (stereo in doubt; 32), the Ki came out at 710 nM.

For `CCCN(CCC)C1CCc2cccc(O)c2C1` (configuration not stated) [8-OH-DPAT], the Ki amounted to 1100 nM.

On to `O=C1CC2(CCCC2)CC(=O)N1CCCCN1CCN(c2ncccn2)CC1` [BUSPIRONE], for which the Ki amounted to 1250 nM.

The next experiment deals with T3, 5-hydroxytryptamine receptor 3B (Mus musculus, UniProt Q9JHJ5).
T3 sequence (Q9JHJ5 whole entry): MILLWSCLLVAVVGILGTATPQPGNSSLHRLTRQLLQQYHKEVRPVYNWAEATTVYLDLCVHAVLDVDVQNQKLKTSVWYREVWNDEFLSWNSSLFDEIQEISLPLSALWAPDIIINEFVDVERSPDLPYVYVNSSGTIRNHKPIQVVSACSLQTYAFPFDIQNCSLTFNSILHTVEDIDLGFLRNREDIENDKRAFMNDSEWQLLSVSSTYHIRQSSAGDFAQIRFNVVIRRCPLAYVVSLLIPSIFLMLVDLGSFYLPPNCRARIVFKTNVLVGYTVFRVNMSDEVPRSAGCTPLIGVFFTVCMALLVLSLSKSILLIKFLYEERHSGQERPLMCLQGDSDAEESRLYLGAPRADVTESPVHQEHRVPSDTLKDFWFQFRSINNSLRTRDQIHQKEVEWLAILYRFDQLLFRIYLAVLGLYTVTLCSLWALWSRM
Briefly: Inhibition of [3H]BRL-43694 binding to 5-hydroxytryptamine 3 receptor in NG cells 108-15.
Conditions: not given
It is filed as cell-based.
Consider `O=C(NCCN1CCN(C2CCCc3ccccc32)CC1)c1ccccc1` (stereo in doubt; 32), for which the affinity corresponds to a Ki of 3470 nM.

The next experiment is filed under the species Bos taurus. Briefly: Inhibition of [3H]prazosin binding to Alpha-1 adrenergic receptor of calf frontal cortex at 10e-7 M. The format is tissue-based.
Conditions: not given
Regarding `Cc1ccc(C(=O)NCCN2CCN(C3CCCCc4ccccc43)CC2)cc1` (configuration not stated), the inhibition turned out to be 0%.

In another experiment the target is Histamine H1 receptor (Rattus norvegicus, UniProt P31390). Description: Inhibition of [3H]pyrilamine binding to Histamine H1 receptor in rat cortex.
Histamine H1 receptor, sequence (P31390 whole entry): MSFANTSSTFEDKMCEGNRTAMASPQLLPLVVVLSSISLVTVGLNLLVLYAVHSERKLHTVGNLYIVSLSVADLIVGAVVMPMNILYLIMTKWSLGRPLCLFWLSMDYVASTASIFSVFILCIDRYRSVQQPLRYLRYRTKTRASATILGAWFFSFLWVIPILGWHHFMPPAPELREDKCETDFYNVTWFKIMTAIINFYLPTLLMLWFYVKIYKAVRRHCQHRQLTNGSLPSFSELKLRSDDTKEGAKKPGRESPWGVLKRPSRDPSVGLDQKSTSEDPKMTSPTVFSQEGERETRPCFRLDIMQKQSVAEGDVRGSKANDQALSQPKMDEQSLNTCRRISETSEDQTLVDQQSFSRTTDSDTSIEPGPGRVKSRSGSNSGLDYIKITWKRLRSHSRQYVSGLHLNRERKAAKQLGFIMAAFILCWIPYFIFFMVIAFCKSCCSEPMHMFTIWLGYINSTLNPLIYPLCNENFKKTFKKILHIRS
Conditions: not given
In turn, `O=C(NCCN1CCN(C2CCCc3ccccc32)CC1)c1ccccc1` (stereo in doubt; 32) showed a Ki of 30 nM.

Another experiment deals with Rattus norvegicus. Briefly: in vivo behavioral test for Lower Lip Retraction(LLR) (msad=minimum significant active dose) in rats. It is filed as functional.
Conditions: not given
On to `CCCN(CCC)C1CCc2cccc(O)c2C1` (configuration not stated) [8-OH-DPAT], for which the LLR msad worked out at 2.2 mg/kg.

The molecule `O=C(NCCN1CCN(C2CCCc3ccccc32)CC1)c1ccc(Cl)cc1` (stereo in doubt; (-)-34) had an LLR msad of 2.5 mg/kg.

The next experiment addresses D(1A) dopamine receptor (Mus musculus, UniProt Q61616). Description: Binding affinity against Dopamine receptor D1.
Conditions: not given
Consider `CCCN(CCC)C1CCc2cccc(O)c2C1` (configuration not stated) [8-OH-DPAT], for which the Ki is greater than 1000 nM.

Consider `O=C1CC2(CCCC2)CC(=O)N1CCCCN1CCN(c2ncccn2)CC1` [BUSPIRONE], for which the Ki is greater than 1000 nM.

The target in another experiment is D(2) dopamine receptor (Bos taurus) (UniProt P20288). Briefly: Inhibition of [3H]YM-09151-2 binding to Dopamine receptor D2 of bovine striatal preparations at 10e-7 M.
D(2) dopamine receptor (Bos taurus), sequence (P20288 whole entry): as the sequence (P20288 whole entry) above
Conditions: not given
With `Cc1ccc(C(=O)NCCN2CCN(C3CCCCc4ccccc43)CC2)cc1` (configuration not stated), the inhibition is 47%.

The target in another experiment is T2, 5-hydroxytryptamine receptor 1A. Briefly: Inhibition of forskolin-activated adenylate cyclase (cAMP) activity at 5-hydroxytryptamine 1A receptor in rat hippocampus. The format is functional, tissue-based.
Conditions: not given
Turning to `O=C(NCCN1CCN(C2CCCc3ccccc32)CC1)c1ccc(Cl)cc1` (stereo in doubt; 34), the IC50 was 75 nM.

With `O=C(NCCN1CCN(C2CCCc3ccccc32)CC1)c1ccccc1` (stereo in doubt; 32), half-maximal inhibition (IC50) was put at 36 nM. This IC50 is about 2.1-fold lower than that of the molecule before.

Molecule `O=C(NCCN1CCN(C2CCCc3ccccc32)CC1)c1ccc(Cl)cc1` (stereo in doubt; (-)-34) showed an IC50 of 38 nM. This IC50 and that of the molecule before are within 1.5-fold of each other.

In general, inhibition refers to the share of the control response that was lost under treatment. Higher therefore signals a response far below the control. The term Ki denotes the dissociation constant of the complex between target and ligand, obtained from inhibition or displacement. One may read the IC50 as the concentration at which inhibition is half-maximal.
